This note sets out measurements from patent US20220089592A1, “IMIDAZO[1,2-A]PYRIDINYL DERIVATIVES AS IRAK4 INHIBITORS” (priority 2019, published 2022).

Broadly, the IC50 is the concentration that gives 50% inhibition.

This assay deals with T1, IRAK4 (Homo sapiens, UniProt Q9NWZ3).
T1 sequence (Q9NWZ3 1-460): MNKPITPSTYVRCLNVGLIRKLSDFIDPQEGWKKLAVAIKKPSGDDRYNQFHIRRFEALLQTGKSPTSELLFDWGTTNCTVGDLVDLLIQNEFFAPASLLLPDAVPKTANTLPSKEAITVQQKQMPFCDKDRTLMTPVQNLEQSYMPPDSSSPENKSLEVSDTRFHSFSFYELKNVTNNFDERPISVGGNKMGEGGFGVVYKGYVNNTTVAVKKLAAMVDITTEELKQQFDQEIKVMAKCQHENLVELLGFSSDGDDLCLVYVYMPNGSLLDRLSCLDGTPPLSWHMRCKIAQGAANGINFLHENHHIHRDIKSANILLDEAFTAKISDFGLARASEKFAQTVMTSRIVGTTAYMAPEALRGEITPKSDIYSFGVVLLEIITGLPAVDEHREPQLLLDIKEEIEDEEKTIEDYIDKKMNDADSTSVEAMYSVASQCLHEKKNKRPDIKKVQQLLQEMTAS
Briefly: 2-hour 1 mM ATP IRAK4 Biochemical assay (as above, but with 100 pM IRAK4 and 1 mM ATP). The conditions noted are these: IRAK4 MSD BIOCHEMICAL (1 mM ATP) IC50 (μM), 100 pM IRAK4, 2 hours. An outline of the steps: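 Run with 100 pM IRAK4 and 1 mM ATP for 2 hours, quenched with EDTA pH 8. Phosphorylated biotinylated peptide captured on streptavidin MSD plates and detected with anti-phosphothreonine antibody plus Sulfo-Tag secondary by electrochemiluminescence.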
Take `CC(C)Oc1c(NC(=O)c2cccn(C(F)F)c2=O)cn2cc(C34COC(C)(C3)C4)nc2c1F` [Example 324, 1-(difluoromethyl)-N-(8-fluoro-7-isopropoxy-2-(1-methyl-2-oxabicyclo[2.1.1]hexan-4-yl)imidazo[1,2-a]pyridin-6-yl)-2-oxo-1,2-dihydropyridine-3-carboxamide]: 0.002 µM corresponded to half-maximal inhibition (IC50). That is a single-digit nanomolar value.

`CC(C)Oc1c(NC(=O)c2ccn(C)n2)cn2cc(C34CCC(C)(C3)OC4)nc2c1F` (stereo not drawn) [Example 325, N-(8-fluoro-7-isopropoxy-2-(1-methyl-2-oxabicyclo[2.2.1]heptan-4-yl)imidazo[1,2-a]pyridin-6-yl)-1-methyl-1H-pyrazole-3-carboxamide] showed an IC50 of 0.002 µM. This counts as single-digit nanomolar.

For the compound `CCC(C)Oc1c(NC(=O)c2cccnc2OC)cn2cc(C34COC(C)(C3)C4)nc2c1F` (stereo not drawn) [Example 326, N-(7-(sec-butoxy)-8-fluoro-2-(1-methyl-2-oxabicyclo[2.1.1]hexan-4-yl)imidazo[1,2-a]pyridin-6-yl)-2-methoxynicotinamide], inhibition was half-maximal at 0.012 µM (IC50).

As for `COc1ncccc1C(=O)Nc1cn2cc(C34COC(C)(C3)C4)nc2c(F)c1OC1CCCC1` [Example 329], it took 0.017 µM to reach half-maximal inhibition (IC50).

In turn, `COc1c(Cl)c(NC(=O)c2cccc(C(F)F)n2)cn2cc(C3CCOCC3)nc12` [Example 331, N-(7-chloro-8-methoxy-2-(tetrahydro-2H-pyran-4-yl)imidazo[1,2-a]pyridin-6-yl)-6-(difluoromethyl)picolinamide] returned an IC50 of 0.031 µM.

In turn, `O=C(Nc1cn2cc(C3CCOCC3)nc2cn1)c1csc(C2CC2)n1` [Example 332, 2-cyclopropyl-N-(2-(tetrahydro-2H-pyran-4-yl)imidazo[1,2-a]pyrazin-6-yl)thiazole-4-carboxamide] yielded an IC50 of 0.108 µM.

Turning to `COc1nc(NC(=O)c2coc(C(F)F)n2)cn2cc(C3CCOCC3)nc12` [Example 333, 2-(difluoromethyl)-N-(8-methoxy-2-(tetrahydro-2H-pyran-4-yl)imidazo[1,2-a]pyrazin-6-yl)oxazole-4-carboxamide], it took 0.044 µM to reach half-maximal inhibition (IC50). Against the preceding compound, the IC50 is about 2.5-fold lower.

For `COc1nc(NC(=O)c2cccc(C3CC3)n2)cn2cc(C3CCOCC3)nc12` [Example 334, 6-cyclopropyl-N-(8-methoxy-2-(tetrahydro-2H-pyran-4-yl)imidazo[1,2-a]pyrazin-6-yl)picolinamide], the IC50 was determined as 0.008 µM.

On to `CCCOc1nc(NC(=O)c2ccccc2OC)cn2cc(C34COC(C)(C3)C4)nc12` [Example 335, 2-methoxy-N-(2-(1-methyl-2-oxabicyclo[2.1.1]hexan-4-yl)-8-propoxyimidazo[1,2-a]pyrazin-6-yl)benzamide], for which the midpoint of inhibition, the IC50, lay at 0.011 µM.

Compound `CC(C)Oc1nc(NC(=O)c2cccc3ccnn23)cn2cc(C34COC(C)(C3)C4)nc12` [Example 336, N-(8-Isopropoxy-2-(1-methyl-2-oxabicyclo[2.1.1]hexan-4-yl)imidazo[1,2-a]pyrazin-6-yl)pyrazolo[1,5-a]pyridine-7-carboxamide] had an IC50 of 0.003 µM.

Consider `COc1ncccc1C(=O)Nc1cn2cc(C34COC(C)(C3)C4)nc2c(OC(C)C)n1` [Example 337, N-(8-isopropoxy-2-(1-methyl-2-oxabicyclo[2.1.1]hexan-4-yl)imidazo[1,2-a]pyrazin-6-yl)-2-methoxynicotinamide], for which inhibition was half-maximal at 0.006 µM (IC50). Compared with the last compound, the IC50 is about 2-fold higher.

Turning to `COc1cccn2ncc(C(=O)Nc3cn4cc(C56COC(C)(C5)C6)nc4c(OC(C)C)n3)c12` [Example 338, N-(8-isopropoxy-2-(1-methyl-2-oxabicyclo[2.1.1]hexan-4-yl)imidazo[1,2-a]pyrazin-6-yl)-4-methoxypyrazolo[1,5-a]pyridine-3-carboxamide], inhibition was half-maximal at 0.002 µM (IC50).

The compound `CC(C)Oc1nc(NC(=O)c2cccc(C(F)F)n2)cn2cc(C3CCOCC3)nc12` [Example 339, 6-(difluoromethyl)-N-(8-isopropoxy-2-(tetrahydro-2H-pyran-4-yl)imidazo[1,2-a]pyrazin-6-yl)picolinamide] gave an IC50 of 0.016 µM.

Regarding `CC12CC(c3cn4cc(NC(=O)c5coc(C6CC6)n5)nc(OC5CCC5)c4n3)(CO1)C2` [Example 340, N-(8-cyclobutoxy-2-(1-methyl-2-oxabicyclo[2.1.1]hexan-4-yl)imidazo[1,2-a]pyrazin-6-yl)-2-cyclopropyloxazole-4-carboxamide], the IC50 is 0.006 µM.

As to `CC12CCC(c3cn4cc(NC(=O)c5coc(C6CC6)n5)nc(OC5CCC5)c4n3)(CO1)C2` (stereo not drawn) [Example 341, N-(8-cyclobutoxy-2-(1-methyl-2-oxabicyclo[2.2.1]heptan-4-yl)imidazo[1,2-a]pyrazin-6-yl)-2-cyclopropyloxazole-4-carboxamide], the IC50 worked out at 0.006 µM.

`O=C(Nc1cn2cc(C3CCOCC3)nc2c(N2CCCC2)n1)c1cccc(C(F)F)n1` [Example 342, 6-(difluoromethyl)-N-(8-(pyrrolidin-1-yl)-2-(tetrahydro-2H-pyran-4-yl)imidazo[1,2-a]pyrazin-6-yl)picolinamide] showed an IC50 of 0.055 µM.

As to `CCOc1nc2nc(C3CCOCC3)cn2cc1NC(=O)c1cccc2c1OCC2` [Example 343, N-(7-ethoxy-2-(tetrahydro-2H-pyran-4-yl)imidazo[1,2-a]pyrimidin-6-yl)-2,3-dihydrobenzofuran-7-carboxamide], the IC50 stood at 0.004 µM.

`CCOc1nc2nc(C34COC(C)(C3)C4)cn2cc1NC(=O)c1cccc(C(F)F)n1` [Example 344, 6-(difluoromethyl)-N-(7-ethoxy-2-(1-methyl-2-oxabicyclo[2.1.1]hexan-4-yl)imidazo[1,2-a]pyrimidin-6-yl)picolinamide] yielded an IC50 of 0.001 µM.

The compound `COc1ncccc1C(=O)Nc1cn2cc(C34COC(C)(C3)C4)nc2nc1OC(C)C` [Example 346, N-(7-isopropoxy-2-(1-methyl-2-oxabicyclo[2.1.1]hexan-4-yl)imidazo[1,2-a]pyrimidin-6-yl)-2-methoxynicotinamide] had an IC50 of 0.001 µM.

The compound `CC(C)Oc1nc2nc(C34COC(C)(C3)C4)cn2cc1NC(=O)c1cccc2ncnn12` [Example 348, N-(7-isopropoxy-2-(1-methyl-2-oxabicyclo[2.1.1]hexan-4-yl)imidazo[1,2-a]pyrimidin-6-yl)-[1,2,4]triazolo[1,5-a]pyridine-5-carboxamide] returned a half-maximal inhibitory concentration (IC50) of 0.001 µM. That is a single-digit nanomolar value.

Turning to `CC(C)Oc1nc2nc(C34COC(C)(C3)C4)cn2cc1NC(=O)c1cnn2cccc(F)c12` [Example 349, 4-fluoro-N-(7-isopropoxy-2-(1-methyl-2-oxabicyclo[2.1.1]hexan-4-yl)imidazo[1,2-a]pyrimidin-6-yl)pyrazolo[1,5-a]pyridine-3-carboxamide], the IC50 stood at 0.001 µM.

`COc1ccccc1C(=O)Nc1cn2cc(C34COC(C)(C3)C4)nc2nc1OC1CC1` [Example 350, N-(7-cyclopropoxy-2-(1-methyl-2-oxabicyclo[2.1.1]hexan-4-yl)imidazo[1,2-a]pyrimidin-6-yl)-2-methoxybenzamide] returned an IC50 of 0.006 µM.

In turn, `COc1cc(NC(=O)c2cccc(C(F)F)n2)cn2c(F)c(C3CCOCC3)nc12` [Example 351, 6-(difluoromethyl)-N-(3-fluoro-8-methoxy-2-(tetrahydro-2H-pyran-4-yl)imidazo[1,2-a]pyridin-6-yl)picolinamide] gave an IC50 of 0.1 µM.

As to `CC(C)Oc1cc2nc(C3CCOCC3)c(F)n2cc1NC(=O)c1cccc(C(F)F)n1` [Example 352, 6-(difluoromethyl)-N-(3-fluoro-7-isopropoxy-2-(tetrahydro-2H-pyran-4-yl)imidazo[1,2-a]pyridin-6-yl)picolinamide], the IC50 stood at 0.001 µM. This IC50 lies about 100-fold lower than the previous one.
